According to ChEMBL document CHEMBL1909046, “DrugMatrix in vitro pharmacology data”:

Key:
[1] = molecular target: T1, Muscarinic acetylcholine receptor M5 (Homo sapiens, UniProt P08912); format: cell membranes, CHO-K1, Membrane; conditions: cho-k1; note: in other assays of this panel Not Active means under 50% inhibition at 10 µM
T1 sequence (P08912 whole entry): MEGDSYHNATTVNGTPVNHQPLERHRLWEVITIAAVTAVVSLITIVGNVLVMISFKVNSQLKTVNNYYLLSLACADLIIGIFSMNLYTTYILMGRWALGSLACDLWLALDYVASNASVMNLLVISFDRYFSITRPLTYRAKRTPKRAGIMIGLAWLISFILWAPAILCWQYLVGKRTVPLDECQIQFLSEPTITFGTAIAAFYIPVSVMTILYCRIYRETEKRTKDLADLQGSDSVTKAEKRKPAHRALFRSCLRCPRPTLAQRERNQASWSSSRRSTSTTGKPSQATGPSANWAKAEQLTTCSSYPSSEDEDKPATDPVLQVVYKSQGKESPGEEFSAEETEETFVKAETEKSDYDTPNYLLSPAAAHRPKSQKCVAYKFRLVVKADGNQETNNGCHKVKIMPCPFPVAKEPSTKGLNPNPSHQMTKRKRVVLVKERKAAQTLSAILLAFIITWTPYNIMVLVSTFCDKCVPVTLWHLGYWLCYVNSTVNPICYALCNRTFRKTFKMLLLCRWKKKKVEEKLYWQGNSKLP

[2] = DRUGMATRIX: beta-Lactamase enzyme inhibition (substrate: Nitrocefin); parameters: species or system Bacillus cereus; conditions: Not Active = under 50% inhibition at 10 µM
Cytochrome P450 2D6 = Cytochrome P450 2D6 (Homo sapiens, UniProt P10635); conditions: bti-tn-5b1-4; note: in other assays of this panel Not Active means under 50% inhibition at 10 µM
Sequence of Cytochrome P450 2D6 (P10635 whole entry): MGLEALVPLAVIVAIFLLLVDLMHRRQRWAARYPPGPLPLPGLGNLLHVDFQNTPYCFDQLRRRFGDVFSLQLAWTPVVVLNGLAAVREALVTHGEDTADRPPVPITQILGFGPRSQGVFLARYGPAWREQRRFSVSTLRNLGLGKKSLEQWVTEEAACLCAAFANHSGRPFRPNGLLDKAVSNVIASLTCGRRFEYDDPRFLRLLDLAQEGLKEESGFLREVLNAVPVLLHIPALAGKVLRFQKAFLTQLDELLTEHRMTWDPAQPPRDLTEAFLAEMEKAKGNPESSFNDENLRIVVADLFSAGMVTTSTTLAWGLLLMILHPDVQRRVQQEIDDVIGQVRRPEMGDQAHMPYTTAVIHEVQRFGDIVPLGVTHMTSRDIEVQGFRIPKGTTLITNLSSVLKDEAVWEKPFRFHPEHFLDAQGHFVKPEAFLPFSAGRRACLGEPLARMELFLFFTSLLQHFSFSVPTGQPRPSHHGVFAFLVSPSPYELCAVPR

[3] = DRUGMATRIX: GABAA, Chloride Channel, TBOB radioligand binding (ligand: [3H] TBOB); format: cell membranes, Rattus norvegicus, Wistar, Cerebral cortex, Membrane; conditions: Not Active = under 50% inhibition at 10 µM
Mu-type opioid receptor = Mu-type opioid receptor (Homo sapiens, UniProt P35372); experiment: DRUGMATRIX: Opiate mu (OP3, MOP) radioligand binding (ligand: [3H] Diprenorphine); format: cell membranes, CHO-K1, Membrane; conditions: cho-k1; Not Active = under 50% inhibition at 10 µM
Sequence of Mu-type opioid receptor (P35372 whole entry): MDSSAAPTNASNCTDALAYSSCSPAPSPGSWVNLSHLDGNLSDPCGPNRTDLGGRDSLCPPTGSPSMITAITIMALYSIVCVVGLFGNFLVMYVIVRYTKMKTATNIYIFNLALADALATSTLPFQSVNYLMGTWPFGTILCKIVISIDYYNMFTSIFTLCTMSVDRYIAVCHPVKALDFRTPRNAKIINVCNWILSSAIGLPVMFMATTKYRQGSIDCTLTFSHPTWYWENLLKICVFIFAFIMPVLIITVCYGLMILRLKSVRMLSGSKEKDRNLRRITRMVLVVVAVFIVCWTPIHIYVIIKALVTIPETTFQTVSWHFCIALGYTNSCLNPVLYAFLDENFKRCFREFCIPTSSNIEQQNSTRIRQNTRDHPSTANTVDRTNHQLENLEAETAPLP

[4] = DRUGMATRIX: Interleukin IL-1 radioligand binding (ligand: [125I] interleukin 1beta); format: cell membranes, Membrane; conditions: nih3t3; Not Active = under 50% inhibition at 10 µM
[5] = molecular target: Beta-2 adrenergic receptor (Homo sapiens, UniProt P07550); experiment: DRUGMATRIX: Adrenergic beta2 radioligand binding (ligand: [3H] CGP-12177); format: cell membranes, CHO, Membrane; conditions: cho; Not Active = under 50% inhibition at 10 µM
Sequence of Beta-2 adrenergic receptor (P07550 whole entry): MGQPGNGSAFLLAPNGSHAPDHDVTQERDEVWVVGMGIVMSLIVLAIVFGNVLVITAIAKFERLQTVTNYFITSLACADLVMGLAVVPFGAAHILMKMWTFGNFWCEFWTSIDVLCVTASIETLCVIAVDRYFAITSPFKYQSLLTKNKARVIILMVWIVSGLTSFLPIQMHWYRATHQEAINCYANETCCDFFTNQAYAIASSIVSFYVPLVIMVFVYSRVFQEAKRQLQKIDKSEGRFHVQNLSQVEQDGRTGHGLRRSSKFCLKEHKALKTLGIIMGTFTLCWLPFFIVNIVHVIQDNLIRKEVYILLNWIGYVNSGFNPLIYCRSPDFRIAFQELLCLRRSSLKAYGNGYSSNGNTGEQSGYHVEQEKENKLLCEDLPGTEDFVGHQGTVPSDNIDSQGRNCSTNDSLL

[6] = DRUGMATRIX: ATPase, Na+/K+ enzyme inhibition (substrate: ATP); format: tissue-based, Sus scrofa, Heart; conditions: Not Active = under 50% inhibition at 10 µM

COc1ccc2[nH]cc(CCNC(C)=O)c2c1 [MELATONIN]
Not Active: IC50 [1] | IC50 [2] | Ki [2] | IC50 (Cytochrome P450 2D6) | Ki (Cytochrome P450 2D6) | IC50 [3] | Ki [3] | IC50 (Mu-type opioid receptor) | IC50 [4] | Ki [4] | IC50 [5] | IC50 [6] | Ki [6]

NC(=O)C[S+]([O-])C(c1ccccc1)c1ccccc1 (stereo unspecified) [MODAFINIL]
Not Active: IC50 [1] | IC50 [2] | Ki [2] | IC50 (Cytochrome P450 2D6) | Ki (Cytochrome P450 2D6) | IC50 [3] | Ki [3] | IC50 (Mu-type opioid receptor) | IC50 [4] | Ki [4] | IC50 [5] | IC50 [6] | Ki [6]

CCN(CC)CCOCCC1=CCC2CC1C2(C)C (stereo unspecified) [MYRTECAINE]
Not Active: IC50 [1] | IC50 [2] | Ki [2] | IC50 (Cytochrome P450 2D6) | Ki (Cytochrome P450 2D6) | IC50 [3] | Ki [3] | IC50 (Mu-type opioid receptor) | IC50 [4] | Ki [4] | IC50 [5] | IC50 [6] | Ki [6]

O=C(O)c1cccnc1Nc1cccc(C(F)(F)F)c1 [NIFLUMIC ACID]
Not Active: IC50 [1] | IC50 [2] | Ki [2] | IC50 (Cytochrome P450 2D6) | Ki (Cytochrome P450 2D6) | IC50 [3] | Ki [3] | IC50 (Mu-type opioid receptor) | IC50 [4] | Ki [4] | IC50 [5] | IC50 [6] | Ki [6]

O=C(N/N=C/c1ccc([N+](=O)[O-])o1)c1cc([N+](=O)[O-])cc([N+](=O)[O-])c1O [NIFURSOL]
Not Active: IC50 [1] | IC50 [2] | Ki [2] | IC50 (Cytochrome P450 2D6) | Ki (Cytochrome P450 2D6) | IC50 [3] | Ki [3] | IC50 (Mu-type opioid receptor) | IC50 [4] | Ki [4] | IC50 [5] | IC50 [6] | Ki [6]

COC(=O)Nc1nc2ccc(C(=O)c3cccs3)cc2[nH]1 [NOCODAZOLE]
Not Active: IC50 [1] | IC50 [2] | Ki [2] | IC50 (Cytochrome P450 2D6) | Ki (Cytochrome P450 2D6) | IC50 [3] | Ki [3] | IC50 (Mu-type opioid receptor) | IC50 [4] | Ki [4] | IC50 [5] | IC50 [6] | Ki [6]

C#CC1(O)CC[C@H]2[C@@H]3CCC4=CC(=O)CC[C@@H]4[C@H]3CC[C@@]21CC (stereo partly specified) [NORGESTREL]
Not Active: IC50 [1] | IC50 [2] | Ki [2] | IC50 (Cytochrome P450 2D6) | Ki (Cytochrome P450 2D6) | IC50 [3] | Ki [3] | IC50 (Mu-type opioid receptor) | IC50 [4] | Ki [4] | IC50 [5] | IC50 [6] | Ki [6]

COC(=O)Nc1nc2ccc([S+]([O-])c3ccccc3)cc2[nH]1 (stereo unspecified) [OXFENDAZOLE]
Not Active: IC50 [1] | IC50 [2] | Ki [2] | IC50 (Cytochrome P450 2D6) | Ki (Cytochrome P450 2D6) | IC50 [3] | Ki [3] | IC50 (Mu-type opioid receptor) | IC50 [4] | Ki [4] | IC50 [5] | IC50 [6] | Ki [6]

CC(=O)O[C@H]1C(=O)[C@@]2(C)[C@H]([C@H](OC(=O)c3ccccc3)[C@]3(O)C[C@H](OC(=O)[C@H](O)[C@@H](NC(=O)c4ccccc4)c4ccccc4)C(C)=C1C3(C)C)[C@]1(OC(C)=O)CO[C@@H]1C[C@@H]2O [PACLITAXEL]
Not Active: IC50 [1] | IC50 [2] | Ki [2] | IC50 (Cytochrome P450 2D6) | Ki (Cytochrome P450 2D6) | IC50 [3] | Ki [3] | IC50 (Mu-type opioid receptor) | IC50 [4] | Ki [4] | IC50 [5] | IC50 [6] | Ki [6]

CCn1cc(C(=O)O)c(=O)c2cnc(N3CCCC3)nc21 [PIROMIDIC ACID]
Not Active: IC50 [1] | IC50 [2] | Ki [2] | IC50 (Cytochrome P450 2D6) | Ki (Cytochrome P450 2D6) | IC50 [3] | Ki [3] | IC50 (Mu-type opioid receptor) | IC50 [4] | Ki [4] | IC50 [5] | IC50 [6] | Ki [6]

C[n+]1ccccc1/C=N/O.[Cl-] [PRALIDOXIME CHLORIDE]
Not Active: IC50 [1] | IC50 [2] | Ki [2] | IC50 (Cytochrome P450 2D6) | Ki (Cytochrome P450 2D6) | IC50 [3] | Ki [3] | IC50 (Mu-type opioid receptor) | IC50 [4] | Ki [4] | IC50 [5] | IC50 [6] | Ki [6]

COc1cc2nc(N3CCN(C(=O)c4ccco4)CC3)nc(N)c2cc1OC [PRAZOSIN]
Not Active: IC50 [1] | IC50 [2] | Ki [2] | IC50 (Cytochrome P450 2D6) | Ki (Cytochrome P450 2D6) | IC50 [3] | Ki [3] | IC50 (Mu-type opioid receptor) | IC50 [4] | Ki [4] | IC50 [5] | IC50 [6] | Ki [6]

C[C@]12C=CC(=O)C=C1CC[C@@H]1[C@@H]2[C@@H](O)C[C@@]2(C)[C@H]1CC[C@]2(O)C(=O)CO [PREDNISOLONE]
Not Active: IC50 [1] | IC50 [2] | Ki [2] | IC50 (Cytochrome P450 2D6) | Ki (Cytochrome P450 2D6) | IC50 [3] | Ki [3] | IC50 (Mu-type opioid receptor) | IC50 [4] | Ki [4] | IC50 [5] | IC50 [6] | Ki [6]

CC(=O)[C@H]1[C@H](C#N)C[C@H]2[C@@H]3CC=C4C[C@@H](O)CC[C@]4(C)[C@H]3CC[C@@]21C [PREGNENOLONE CARBONITRILE]
Not Active: IC50 [1] | IC50 [2] | Ki [2] | IC50 (Cytochrome P450 2D6) | Ki (Cytochrome P450 2D6) | IC50 [3] | Ki [3] | IC50 (Mu-type opioid receptor) | IC50 [4] | Ki [4] | IC50 [5] | IC50 [6] | Ki [6]

CCCN(CCC)S(=O)(=O)c1ccc(C(=O)O)cc1 [PROBENECID]
Not Active: IC50 [1] | IC50 [2] | Ki [2] | IC50 (Cytochrome P450 2D6) | Ki (Cytochrome P450 2D6) | IC50 [3] | Ki [3] | IC50 (Mu-type opioid receptor) | IC50 [4] | Ki [4] | IC50 [5] | IC50 [6] | Ki [6]

CCCOc1ccc(C(=O)OCCN(CC)CC)cc1N [PROPARACAINE]
Not Active: IC50 [1] | IC50 [2] | Ki [2] | IC50 (Cytochrome P450 2D6) | Ki (Cytochrome P450 2D6) | IC50 [3] | Ki [3] | IC50 (Mu-type opioid receptor) | IC50 [4] | Ki [4] | IC50 [5] | IC50 [6] | Ki [6]

Oc1cccc(O)c1O [PYROGALLOL]
Not Active: IC50 [1] | IC50 [2] | Ki [2] | IC50 (Cytochrome P450 2D6) | Ki (Cytochrome P450 2D6) | IC50 [3] | Ki [3] | IC50 (Mu-type opioid receptor) | IC50 [4] | Ki [4] | IC50 [5] | IC50 [6] | Ki [6]
